Tested on: 388556-164-R-J1-PDC complex spheroid viability
Assay: Anticancer human tumor 388556-164-R-J1-PDC patient-derived colon adenocarcinoma cell line growth inhibition [RAS]
Settings: for viability, T/C: stronger effect = lower value
How it was run: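 Multi-cell-type spheroids: tumor cells plus HUVEC endothelial cells and mesenchymal stem cells. RAS-pathway inhibitors were combined with targeted agents, each dosed in half-log steps down from clinical Cmax, or from 10 microM when Cmax was unknown.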

[1] = curve of first compound, second compound 0.0316 µM
[2] = curve of first compound, second compound 0.1 µM
[3] = curve of first compound, second compound 0.316 µM
[4] = curve of first compound, second compound 1 µM
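Further: spheroids exposed to compound for 7 days before readout.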
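Wherever viability, T/C is given: 100% = DMSO vehicle control luminescence.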

Compound: Cc1nc(N2CCC3(CC2)COC(C)C3N)c(CO)nc1Sc1ccnc(N)c1Cl (stereo unspecified) + C#Cc1c(F)ccc2cc(O)cc(-c3ncc4c(N5CC6CCC(C5)N6)nc(OCC56CCCN5CC(F)C6)nc4c3F)c12
- IC50 [1]: 2290 nM
- IC50 [2]: 2350 nM
- IC50 [3]: 827 nM
- IC50 [4]: 921 nM
- IC50 (curve of first compound, second compound 3.16 µM): 400 nM
- IC50 (curve of first compound, second compound 10 µM): 95.9 nM
- viability, T/C (second compound 0.0316 µM, first compound 0.0316 µM): 92%
- viability, T/C (second compound 0.0316 µM, first compound 0.1 µM): 85.2%
- viability, T/C (second compound 0.0316 µM, first compound 0.316 µM): 79.8%
- viability, T/C (second compound 0.0316 µM, first compound 1 µM): 55.2%
- viability, T/C (second compound 0.0316 µM, first compound 3.16 µM): 51%
- viability, T/C (second compound 0.0316 µM, first compound 10 µM): 42.3%
- viability, T/C (second compound 0.1 µM, first compound 0.0316 µM): 98.4%
- viability, T/C (second compound 0.1 µM, first compound 0.1 µM): 89.7%
- viability, T/C (second compound 0.1 µM, first compound 0.316 µM): 71.8%
- viability, T/C (second compound 0.1 µM, first compound 1 µM): 62.5%
- viability, T/C (second compound 0.1 µM, first compound 3.16 µM): 45%
- viability, T/C (second compound 0.1 µM, first compound 10 µM): 36.9%
- viability, T/C (second compound 0.316 µM, first compound 0.0316 µM): 89.2%
- viability, T/C (second compound 0.316 µM, first compound 0.1 µM): 81.4%
- viability, T/C (second compound 0.316 µM, first compound 0.316 µM): 47.3%
- viability, T/C (second compound 0.316 µM, first compound 1 µM): 51.8%
- viability, T/C (second compound 0.316 µM, first compound 3.16 µM): 45.2%
- viability, T/C (second compound 0.316 µM, first compound 10 µM): 28.8%
- viability, T/C (second compound 1 µM, first compound 0.0316 µM): 80%
- viability, T/C (second compound 1 µM, first compound 0.1 µM): 70.5%
- viability, T/C (second compound 1 µM, first compound 0.316 µM): 58.9%
- viability, T/C (second compound 1 µM, first compound 1 µM): 49.1%
- viability, T/C (second compound 1 µM, first compound 3.16 µM): 39.4%
- viability, T/C (second compound 1 µM, first compound 10 µM): 26.2%
- viability, T/C (second compound 3.16 µM, first compound 0.0316 µM): 66.1%
- viability, T/C (second compound 3.16 µM, first compound 0.1 µM): 50.8%
- viability, T/C (second compound 3.16 µM, first compound 0.316 µM): 54.3%
- viability, T/C (second compound 3.16 µM, first compound 1 µM): 46.6%
- viability, T/C (second compound 3.16 µM, first compound 3.16 µM): 33.6%
- viability, T/C (second compound 3.16 µM, first compound 10 µM): 24%
- viability, T/C (second compound 10 µM, first compound 0.0316 µM): 61.1%
- viability, T/C (second compound 10 µM, first compound 0.1 µM): 45.5%
- viability, T/C (second compound 10 µM, first compound 0.316 µM): 44%
- viability, T/C (second compound 10 µM, first compound 1 µM): 32.1%
- viability, T/C (second compound 10 µM, first compound 3.16 µM): 22%
- viability, T/C (second compound 10 µM, first compound 10 µM): 21.3%

Compound: CC1(C)CCC(Nc2ncc(C(F)(F)F)c(-c3c[nH]c4c(P(C)(C)=O)c(C#N)ccc34)n2)CN1 (stereo unspecified) + C=CC(=O)N1CCN(c2nc(OCC3CCCN3C)nc3c(F)c(-c4nc(N)cc(C)c4C(F)(F)F)c(Cl)cc23)C(C)C1
- IC50 (curve of first compound, second compound 0.00316 µM): > 300 nM
- IC50 (curve of first compound, second compound 0.01 µM): > 300 nM
- IC50 [1]: > 300 nM
- IC50 [2]: > 300 nM
- IC50 [3]: > 300 nM
- IC50 [4]: > 300 nM
- viability, T/C (second compound 0.00316 µM, first compound 0.000949 µM): 102%
- viability, T/C (second compound 0.00316 µM, first compound 0.003 µM): 101%
- viability, T/C (second compound 0.00316 µM, first compound 0.00949 µM): 97%
- viability, T/C (second compound 0.00316 µM, first compound 0.03 µM): 85%
- viability, T/C (second compound 0.00316 µM, first compound 0.0949 µM): 95.5%
- viability, T/C (second compound 0.00316 µM, first compound 0.3 µM): 88.1%
- viability, T/C (second compound 0.01 µM, first compound 0.000949 µM): 101%
- viability, T/C (second compound 0.01 µM, first compound 0.003 µM): 95.7%
- viability, T/C (second compound 0.01 µM, first compound 0.00949 µM): 93.7%
- viability, T/C (second compound 0.01 µM, first compound 0.03 µM): 99.7%
- viability, T/C (second compound 0.01 µM, first compound 0.0949 µM): 89.2%
- viability, T/C (second compound 0.01 µM, first compound 0.3 µM): 87.5%
- viability, T/C (second compound 0.0316 µM, first compound 0.000949 µM): 102%
- viability, T/C (second compound 0.0316 µM, first compound 0.003 µM): 100%
- viability, T/C (second compound 0.0316 µM, first compound 0.00949 µM): 89.8%
- viability, T/C (second compound 0.0316 µM, first compound 0.03 µM): 103%
- viability, T/C (second compound 0.0316 µM, first compound 0.0949 µM): 97.8%
- viability, T/C (second compound 0.0316 µM, first compound 0.3 µM): 96.2%
- viability, T/C (second compound 0.1 µM, first compound 0.000949 µM): 98.4%
- viability, T/C (second compound 0.1 µM, first compound 0.003 µM): 99.8%
- viability, T/C (second compound 0.1 µM, first compound 0.00949 µM): 96.8%
- viability, T/C (second compound 0.1 µM, first compound 0.03 µM): 84.7%
- viability, T/C (second compound 0.1 µM, first compound 0.0949 µM): 99.6%
- viability, T/C (second compound 0.1 µM, first compound 0.3 µM): 87.8%
- viability, T/C (second compound 0.316 µM, first compound 0.000949 µM): 110%
- viability, T/C (second compound 0.316 µM, first compound 0.003 µM): 97.6%
- viability, T/C (second compound 0.316 µM, first compound 0.00949 µM): 102%
- viability, T/C (second compound 0.316 µM, first compound 0.03 µM): 95.7%
- viability, T/C (second compound 0.316 µM, first compound 0.0949 µM): 94.1%
- viability, T/C (second compound 0.316 µM, first compound 0.3 µM): 92.4%
- viability, T/C (second compound 1 µM, first compound 0.000949 µM): 91.1%
- viability, T/C (second compound 1 µM, first compound 0.003 µM): 105%
- viability, T/C (second compound 1 µM, first compound 0.00949 µM): 105%
- viability, T/C (second compound 1 µM, first compound 0.03 µM): 104%
- viability, T/C (second compound 1 µM, first compound 0.0949 µM): 94.9%
- viability, T/C (second compound 1 µM, first compound 0.3 µM): 85%

Compound: C=CC(=O)N1CCN(c2nc(OCC3CCCN3C)nc3c(F)c(-c4nc(N)cc(C)c4C(F)(F)F)c(Cl)cc23)C(C)C1 (stereo unspecified)
- viability, T/C (compound 0.00316 µM): 100% [middle of 11 runs]
- viability, T/C (compound 0.0316 µM): 99.2% [middle of 11 runs]
- viability, T/C (compound 0.1 µM): 105% [middle of 11 runs]
- viability, T/C (compound 0.316 µM): 102% [middle of 11 runs]
- viability, T/C (compound 1 µM): 98% [middle of 11 runs]
- IC50 (compound alone, run of 09/09/2024): > 1000 nM
- IC50 (curve of compound): > 1000 nM

Source: PubChem BioAssay AID2060907 (Molecular Pharmacology Branch, DTP, NCI, 2025)
